Test results taken from patent publication US20070167631A1, “Novel herbicides” (priority 2003, published 2007).

Assays:
Type in all cases: in vivo
[1] = test system: Sinapis; assay: Comparison test with prior art compound A, post-emergence herbicidal action (Example B4); conditions: 125 g/ha, rating scale 10=total damage, 0=no action
Excerpt: (§1) The post-emergence herbicidal action of compound no. 1.095 according to the invention was compared with compound A, which is described as compound no.

[2] = test system: Maize; assay: as above; conditions: 125 g/ha, crop plant, rating scale 10=total damage, 0=no action
Excerpt: as §1

[3] = test system: Sida; assay: as above; conditions: 125 g/ha, rating scale 10=total damage, 0=no action
Excerpt: as §1

[4] = test system: Stellaria; assay: as above; conditions: 125 g/ha, rating scale 10=total damage, 0=no action
Excerpt: as §1

[5] = test system: Wheat; assay: as above; conditions: 125 g/ha, crop plant, rating scale 10=total damage, 0=no action
Excerpt: as §1

[6] = test system: Panicum; assay: Pre-emergence herbicidal action (Example B1); conditions: 250 g/ha, after 4 weeks, rating scale 10=total damage, 0=no action
Protocol: (§2) Monocotyledonous and dicotyledonous test plants are sown in standard soil in pots or seed trays. Immediately after sowing, the test compounds, in the form of an aqueous suspension (prepared from a wettable powder (Example F3, b) according to WO 97/34485) or in the form of an emulsion (prepared from an emulsifiable concentrate (Example F1, c) according to WO 97/34485), are applied by spraying in a concentration of 250 g/ha. The test plants are then grown in a greenhouse under optimum conditions. After a test duration of 4 weeks, the test is evaluated in accordance with a scale of eleven ratings (10=total damage, 0=no action). Ratings of from 10 to 7 (especially from 10 to 8) indicate very good to good herbicidal action.

[7] = test system: Amaranthus; assay: Pre-emergence herbicidal action (Example B1); conditions: 250 g/ha, after 4 weeks, rating scale 10=total damage, 0=no action
Protocol: as §2

[8] = test system: Digitaria; assay: Pre-emergence herbicidal action (Example B1); conditions: 250 g/ha, after 4 weeks, rating scale 10=total damage, 0=no action
Protocol: as §2

[9] = test system: Scirpus; assay: Pre-emergence herbicidal action (Example B1); conditions: 250 g/ha, after 4 weeks, rating scale 10=total damage, 0=no action
Protocol: as §2

[10] = test system: Echinochloa; assay: Pre-emergence herbicidal action (Example B1); conditions: 250 g/ha, after 4 weeks, rating scale 10=total damage, 0=no action
Protocol: as §2

[11] = test system: Abutilon; assay: Pre-emergence herbicidal action (Example B1); conditions: 250 g/ha, after 4 weeks, rating scale 10=total damage, 0=no action
Protocol: as §2

[12] = test system: Chenopodium; assay: Pre-emergence herbicidal action (Example B1); conditions: 250 g/ha, after 4 weeks, rating scale 10=total damage, 0=no action
Protocol: as §2

[13] = test system: Panicum; assay: Post-emergence herbicidal action (Example B2); conditions: 250 g/ha, after about 18 days, rating scale 10=total damage, 0=no action
Method in brief: (§3)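 Foliar spray, two doses (125, 250 g a.i./ha), WP suspension or EC emulsion, each 25% formulations; greenhouse plants at 4–6 leaves; readout ~18 days post-treatment as 11-step damage score where 10 means plants fully destroyed.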

[14] = test system: Amaranthus; assay: Post-emergence herbicidal action (Example B2); conditions: 250 g/ha, after about 18 days, rating scale 10=total damage, 0=no action
Method in brief: as §3

[15] = test system: Euphorbia; assay: Post-emergence herbicidal action (Example B2); conditions: 250 g/ha, after about 18 days, rating scale 10=total damage, 0=no action
Method in brief: as §3

[16] = test system: Echinochloa; assay: Post-emergence herbicidal action (Example B2); conditions: 250 g/ha, after about 18 days, rating scale 10=total damage, 0=no action
Method in brief: as §3

[17] = test system: Stellaria; assay: Post-emergence herbicidal action (Example B2); conditions: 250 g/ha, after about 18 days, rating scale 10=total damage, 0=no action
Method in brief: as §3

[18] = test system: Chenopodium; assay: Post-emergence herbicidal action (Example B2); conditions: 250 g/ha, after about 18 days, rating scale 10=total damage, 0=no action
Method in brief: as §3

[19] = test system: Xanthium; assay: Post-emergence herbicidal action (Example B2); conditions: 250 g/ha, after about 18 days, rating scale 10=total damage, 0=no action
Method in brief: as §3

Row | SMILES | Post-emergence herbicidal action: Sinapis [1] | Post-emergence herbicidal action: Maize [2] | Post-emergence herbicidal action: Sida [3] | Post-emergence herbicidal action: Stellaria [4] | Post-emergence herbicidal action: Wheat [5] | Pre-emergence action: Panicum [6] | Pre-emergence action: Amaranthus [7] | Pre-emergence action: Digitaria [8] | Pre-emergence action: Scirpus [9] | Pre-emergence action: Echinochloa [10] | Pre-emergence action: Abutilon [11] | Pre-emergence action: Chenopodium [12] | Post-emergence action: Panicum [13] | Post-emergence action: Amaranthus [14] | Post-emergence action: Euphorbia [15] | Post-emergence action: Echinochloa [16] | Post-emergence action: Stellaria [17] | Post-emergence action: Chenopodium [18] | Post-emergence action: Xanthium [19]
1 | O=C1CCCC(O)=C1C(=O)c1ncc(C(F)(F)F)cc1Cl [A, reference compound] | 6 | 0 | 2 | 9 | 0 |  |  |  |  |  |  |  |  |  |  |  |  |  | 
2 | CC1(C)CCC(O)=C(C(=O)c2ccc(C(F)(F)F)c(N3CCOCC3)n2)C1=O [Compound 3.072] |  |  |  |  |  | 9 | 3 | 10 | 7 | 10 | 9 | 8 | 8 | 7 | 7 | 7 | 8 | 9 | 8
3 | CC1CN(c2nc(C(=O)C3=C(O)CCCC3=O)ccc2C(F)(F)F)CC(C)O1 (stereo not drawn) [Compound 1.075] |  |  |  |  |  | 10 | 10 | 10 | 7 | 10 | 9 | 9 | 10 | 10 | 8 | 8 | 8 | 10 | 7
4 | O=C1CCCC(O)=C1C(=O)c1ccc(C(F)(F)F)c(N2CCSCC2)n1 [Compound 1.079] |  |  |  |  |  | 10 | 10 | 10 | 4 | 10 | 10 | 9 | 3 | 8 | 8 | 7 | 10 | 10 | 7
5 | CC1(C)C(=O)C(C(=O)c2ccc(C(F)(F)F)c(OC3CCOC3)n2)=C(O)C(C)(C)C1=O (stereo not drawn) [Compound 2.021] |  |  |  |  |  | 9 | 7 | 3 | 7 | 0 | 9 | 9 | 9 | 9 | 9 | 9 | 7 | 8 | 8
6 | COCCOCc1nc(C(=O)C2=C(O)CCCC2=O)ccc1C(F)(F)F [Compound 1.126] |  |  |  |  |  | 9 | 10 | 6 | 8 | 2 | 10 | 10 | 7 | 8 | 8 | 7 | 8 | 8 | 8
7 | CC1(C)C(=O)C(C(=O)c2ccc(C(F)(F)F)c(N3CCSCC3)n2)=C(O)C(C)(C)C1=O [Compound 2.078] |  |  |  |  |  | 10 | 8 | 10 | 0 | 10 | 10 | 10 | 5 | 7 | 7 | 8 | 10 | 10 | 7
8 | Cc1nc(C(=O)C2=C(O)C(C)(C)C(=O)C(C)(C)C2=O)ccc1C#N [Compound 2.209] |  |  |  |  |  | 10 | 9 | 8 | 2 | 10 | 10 | 9 | 9 | 8 | 8 | 8 | 10 | 6 | 9
9 | COC(COc1nc(C(=O)C2=C(O)CCCC2=O)ccc1C(F)(F)F)OC [Compound 1.012] |  |  |  |  |  | 10 | 5 | 9 | 7 | 5 | 10 | 0 | 7 | 9 | 9 | 8 | 7 | 8 | 8
